According to US6737383B1, “Herbicidal oxadiazolidines” (priority 1999, dated 2004):

Key:
[1] = system: green foxtail; assay: Test E green foxtail; type: in vivo, Setaria viridis; settings: Preemergence; for Green foxtail plant response rating (0 to 100 scale): Rate 250 g/ha
[2] = system: winter wheat; assay: Test E winter wheat; type: in vivo, Triticum aestivum; settings: Preemergence; for Wheat (winter) plant response rating (0 to 100 scale): Rate 250 g/ha
[3] = system: sugar beet; assay: Test B pre/postemergence sugar beet; type: in vivo, Beta vulgaris
In short: (§1)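 Herbicidal effect was estimated by eye on a ten-point control scale after plants spent twelve to sixteen days in a greenhouse following soil or foliar treatment. Foliar sprays targeted plants at one to four leaves; all doses were formulated in a non-phytotoxic solvent with surfactant.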

[4] = system: blackgrass; assay: Test E blackgrass; type: in vivo, Alopecurus myosuroides; settings: Preemergence; for Blackgrass plant response rating (0 to 100 scale): Rate 250 g/ha
[5] = system: wild oat; assay: Test E wild oat; type: in vivo, Avena fatua; settings: Preemergence; for Wild oat plant response rating (0 to 100 scale): Rate 250 g/ha
[6] = system: Italian ryegrass; assay: Test E Italian ryegrass; type: in vivo, Lolium multiflorum; settings: Preemergence; for I. Ryegrass plant response rating (0 to 100 scale): Rate 250 g/ha
[7] = system: winter barley; assay: Test E winter barley; type: in vivo, Hordeum vulgare; settings: Preemergence; for Barley (winter) plant response rating (0 to 100 scale): Rate 250 g/ha
[8] = system: winter wheat; assay: Test E winter wheat; type: in vivo, Triticum aestivum; settings: Postemergence; for Plant response rating, Wheat (winter): 0 to 100 scale
In short: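 Visual evaluation versus untreated controls after about 21 to 28 days in the greenhouse. Compound was in a surfactant-containing non-phytotoxic solvent; postemergence plants were treated at the 1- to 4-leaf stage, grown in a 60:40 sandy loam and potting mix blend.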

[9] = system: crabgrass; assay: Test B pre/postemergence crabgrass; type: in vivo, Digitaria sanguinalis
In short: as §1

[10] = system: giant foxtail; assay: Test B pre/postemergence giant foxtail; type: in vivo, Setaria faberii
In short: as §1

[11] = system: soybean; assay: Test B pre/postemergence soybean; type: in vivo, Glycine max
In short: as §1

[12] = Rate 500 g/ha, 0 to 100 scale where 0 is no effect and 100 is complete control
[13] = Rate 1000 g/ha, 0 to 100 scale where 0 is no effect and 100 is complete control
[14] = Postemergence, Rate 125 g/ha, scale of 0 to 10 where 0 is no effect and 10 is complete control
[15] = Postemergence, Rate 1000 g/ha, scale 0 to 10 (0 no effect, 10 complete control)
[16] = Preemergence, Rate 125 g/ha, 0 is no effect, 10 is complete control
[17] = Preemergence, Rate 250 g/ha, scale 0 to 10, 0 is no effect, 10 is complete control
[18] = Preemergence, Rate 500 g/ha, scale 0 to 10 (0 no effect, 10 complete control)
[19] = Rate 250 g/ha, Postemergence, scale 0 to 10, 0 is no effect, 10 is complete control
[20] = Rate 500 g/ha, Postemergence, scale 0 to 10
[21] = Rate 1000 g/ha, Preemergence, scale 0 to 10 (0 no effect, 10 complete control)
[22] = Rate 500 g/ha, 0 is no effect, 100 is complete control
[23] = Rate 125 g/ha, 0 to 100 scale (0 no effect, 100 complete control)
[24] = Preemergence, Rate 62 g/ha, scale of 0 to 10 where 0 is no effect and 10 is complete control
[25] = Preemergence, Rate 250 g/ha, scale of 0 to 10 where 0 is no effect and 10 is complete control
[26] = Preemergence, Rate 500 g/ha, scale of 0 to 10 where 0 is no effect and 10 is complete control
[27] = Rate 62 g/ha, Postemergence, scale of 0 to 10 where 0 is no effect and 10 is complete control
[28] = Rate 125 g/ha, Postemergence, scale 0 to 10
[29] = Rate 125 g/ha, Preemergence, scale of 0 to 10 where 0 is no effect and 10 is complete control
[30] = Rate 500 g/ha, Postemergence, scale 0 to 10, 0 no effect, 10 complete control

## Cc1ccccc1-n1c(=O)on(C(=O)N(c2c(F)cccc2F)C(C)C)c1=O [Compound 176]
[1]
  Green foxtail plant response rating (0 to 100 scale): 50
[1]; [12]
  Plant response rating, Green foxtail: 70
[1]; [13]
  Plant response rating, Green foxtail: 100
[2]
  Wheat (winter) plant response rating (0 to 100 scale): 20
[2]; [12]
  Plant response rating, Wheat (winter): 30
[2]; [13]
  Plant response rating, Wheat (winter): 50
[3]; [14]
  Sugarbeets plant response rating: 0
[3]; [15]
  Sugarbeets plant response rating: 4
[3]; [16]
  Sugarbeets plant response rating (0 to 10 scale): 0
[3]; [17]
  Sugarbeets plant response rating: 0
[3]; [18]
  Sugarbeets plant response rating: 2
[3]; [19]
  Plant response rating, Sugarbeets: 0
[3]; [20]
  Sugarbeets plant response rating: 0
[3]; [21]
  Plant response rating, Sugarbeets: 6
[4]
  Blackgrass plant response rating (0 to 100 scale): 40
[4]; [12]
  Plant response rating, Blackgrass: 50
[4]; [13]
  Plant response rating, Blackgrass: 75
[5]
  Wild oat plant response rating (0 to 100 scale): 30
[5]; [12]
  Plant response rating, Wild oat: 50
[5]; [13]
  Plant response rating, Wild oat: 50
[6]
  I. Ryegrass plant response rating (0 to 100 scale): 50
[6]; [12]
  Plant response rating, I. Ryegrass: 60
[6]; [13]
  Plant response rating, I. Ryegrass: 98
[7]
  Barley (winter) plant response rating (0 to 100 scale): 30
[7]; [12]
  Plant response rating, Barley (winter): 40
[7]; [13]
  Plant response rating, Barley (winter): 50
[8]; Rate 1000 g/ha, 0 is no effect and 100 is complete control
  Plant response rating, Wheat (winter): 40
[8]; [22]
  Plant response rating, Wheat (winter): 50
[9]; [14]
  Crabgrass plant response rating: 0
[9]; [15]
  Crabgrass plant response rating: 9
[9]; [16]
  Crabgrass plant response rating (0 to 10 scale): 8
[9]; [17]
  Crabgrass plant response rating: 9
[9]; [18]
  Crabgrass plant response rating: 10
[9]; [19]
  Plant response rating, Crabgrass: 3
[9]; [20]
  Crabgrass plant response rating: 6
[9]; [21]
  Plant response rating, Crabgrass: 10
[10]; [14]
  Giant foxtail plant response rating: 0
[10]; [15]
  Giant foxtail plant response rating: 7
[10]; [16]
  Giant foxtail plant response rating (0 to 10 scale): 6
[10]; [17]
  Giant foxtail plant response rating: 10
[10]; [18]
  Giant foxtail plant response rating: 10
[10]; [19]
  Plant response rating, Giant foxtail: 0
[10]; [20]
  Giant foxtail plant response rating: 6
[10]; [21]
  Plant response rating, Giant foxtail: 10
[11]; [14]
  Soybean plant response rating: 2
[11]; [15]
  Soybean plant response rating: 4
[11]; [16]
  Soybean plant response rating (0 to 10 scale): 0
[11]; [17]
  Soybean plant response rating: 0
[11]; [18]
  Soybean plant response rating: 0
[11]; [19]
  Plant response rating, Soybean: 2
[11]; [20]
  Soybean plant response rating: 4
[11]; [21]
  Plant response rating, Soybean: 2

## CC(C)N(C(=O)n1oc(=O)n(CCC2OCCO2)c1=O)c1ccc(F)cc1 [Compound 219]
[1]; [23]
  Plant response rating, Green foxtail: 65
[1]
  Green foxtail plant response rating (0 to 100 scale): 60
[1]; [12]
  Plant response rating, Green foxtail: 70
[2]; [23]
  Plant response rating, Wheat (winter): 35
[2]
  Wheat (winter) plant response rating (0 to 100 scale): 60
[2]; [12]
  Plant response rating, Wheat (winter): 60
[3]; [24]
  Sugarbeets plant response rating: 3
[3]; [25]
  Sugarbeets plant response rating: 4
[3]; [26]
  Plant response rating, Sugarbeets: 8
[3]; [27]
  Sugarbeets plant response rating: 4
[3]; [28]
  Sugarbeets plant response rating: 4
[3]; [29]
  Sugarbeets plant response rating: 4
[3]; Rate 250 g/ha, Postemergence
  Plant response rating (0 to 10; 0 is no effect, 10 is complete control), Sugarbeets: 4
[3]; [30]
  Sugarbeets plant response rating: 7
[4]; [23]
  Plant response rating, Blackgrass: 0
[4]
  Blackgrass plant response rating (0 to 100 scale): 20
[4]; [12]
  Plant response rating, Blackgrass: 70
[5]; [23]
  Plant response rating, Wild oat: 30
[5]
  Wild oat plant response rating (0 to 100 scale): 50
[5]; [12]
  Plant response rating, Wild oat: 60
[6]; [23]
  Plant response rating, I. Ryegrass: 30
[6]
  I. Ryegrass plant response rating (0 to 100 scale): 55
[6]; [12]
  Plant response rating, I. Ryegrass: 70
[7]; [23]
  Plant response rating, Barley (winter): 20
[7]
  Barley (winter) plant response rating (0 to 100 scale): 30
[7]; [12]
  Plant response rating, Barley (winter): 70
[8]; Rate 125 g/ha, 0 is no effect, 100 is complete control
  Plant response rating, Wheat (winter): 20
[8]; Rate 250 g/ha, 0 to 100 scale where 0 is no effect and 100 is complete control
  Wheat (winter) plant response rating: 50
[8]; [22]
  Plant response rating, Wheat (winter): 60
[9]; [24]
  Crabgrass plant response rating: 5
[9]; [25]
  Crabgrass plant response rating: 9
[9]; [26]
  Plant response rating, Crabgrass: 10
[9]; [27]
  Crabgrass plant response rating: 3
[9]; [28]
  Crabgrass plant response rating: 4
[9]; [29]
  Crabgrass plant response rating: 8
[9]; Rate 250 g/ha, Postemergence
  Plant response rating (0 to 10; 0 is no effect, 10 is complete control), Crabgrass: 6
[9]; [30]
  Crabgrass plant response rating: 8
[10]; [24]
  Giant foxtail plant response rating: 10
[10]; [25]
  Giant foxtail plant response rating: 10
[10]; [26]
  Plant response rating, Giant foxtail: 10
[10]; [27]
  Giant foxtail plant response rating: 6
[10]; [28]
  Giant foxtail plant response rating: 7
[10]; [29]
  Giant foxtail plant response rating: 10
[10]; Rate 250 g/ha, Postemergence
  Plant response rating (0 to 10; 0 is no effect, 10 is complete control), Giant foxtail: 8
[10]; [30]
  Giant foxtail plant response rating: 9
[11]; [24]
  Soybean plant response rating: 0
[11]; [25]
  Soybean plant response rating: 0
[11]; [26]
  Plant response rating, Soybean: 0
[11]; [27]
  Soybean plant response rating: 5
[11]; [28]
  Soybean plant response rating: 5
[11]; [29]
  Soybean plant response rating: 0
[11]; Rate 250 g/ha, Postemergence
  Plant response rating (0 to 10; 0 is no effect, 10 is complete control), Soybean: 7
[11]; [30]
  Soybean plant response rating: 7
